Test results from patent US10028992B2, “Methods of treating muscular dystrophy” (BOARD OF REGENTS OF THE NEVADA SYSTEM OF HIGHER EDUCATION …, priority 2012, dated 2018).

System: α7 integrin promoter
Experiment: muscle cell-based assay: α7βgal+/− myoblasts/myotubes, LacZ reporter, β-galactosidase cleavage of FDG
Design: species or system mouse; Results in α7+/− β-galactosidase assay: scale not given here
Conditions: Myoblasts
Method in brief: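 Fluorescein generated from FDG by β-galactosidase reports α7 integrin promoter activity in differentiated myoblasts from α7+/− LacZ knock-in pups. Screening hits then went to dose-response, western blotting and a myostatin counterscreen.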

CC(C)(C)NC(=O)NC(=O)CN1CCN(Cc2ccccc2)CC1 [drawing 632]
Results in α7+/− β-galactosidase assay (0.5 uM): 0.1233 | Results in α7+/− β-galactosidase assay (1 uM): −0.06967 | Results in α7+/− β-galactosidase assay (5 uM): −0.04648 | Results in α7+/− β-galactosidase assay (10 uM): 0.1725 | Results in α7+/− β-galactosidase assay (20 uM): −0.02695 | Results in α7+/− β-galactosidase assay (40 uM): −0.05859

COc1cc(C=O)ccc1OCC(=O)Nc1ccc2c(c1)OCO2 [drawing 633]
Results in α7+/− β-galactosidase assay (0.5 uM): 0.04105 | Results in α7+/− β-galactosidase assay (1 uM): −0.1736 | Results in α7+/− β-galactosidase assay (5 uM): 0.4398 | Results in α7+/− β-galactosidase assay (10 uM): 0.09536 | Results in α7+/− β-galactosidase assay (20 uM): −0.06607 | Results in α7+/− β-galactosidase assay (40 uM): −0.1156

Cc1ccccc1NC(=O)c1ccc2c(O)c(Sc3ccccc3)c(=O)[nH]c2c1 [drawing 634]
Results in α7+/− β-galactosidase assay (0.5 uM): −0.01711 | Results in α7+/− β-galactosidase assay (1 uM): −0.1427 | Results in α7+/− β-galactosidase assay (5 uM): 0.008423 | Results in α7+/− β-galactosidase assay (10 uM): −0.03481 | Results in α7+/− β-galactosidase assay (20 uM): −0.0939 | Results in α7+/− β-galactosidase assay (40 uM): −0.1611

Oc1nc(SCc2ccc(Cl)cc2)nc2ccsc12 [drawing 635]
Results in α7+/− β-galactosidase assay (0.5 uM): 0.07667 | Results in α7+/− β-galactosidase assay (1 uM): 0.02077 | Results in α7+/− β-galactosidase assay (5 uM): −0.02435 | Results in α7+/− β-galactosidase assay (10 uM): −0.03652 | Results in α7+/− β-galactosidase assay (20 uM): −0.1552 | Results in α7+/− β-galactosidase assay (40 uM): −0.139

CCn1c(=O)c2cc(C(=O)N(C)c3cc(C)ccc3OC)sc2c2ccccc21 [drawing 636]
Results in α7+/− β-galactosidase assay (0.5 uM): 0.06384 | Results in α7+/− β-galactosidase assay (1 uM): −0.07654 | Results in α7+/− β-galactosidase assay (5 uM): −0.2273 | Results in α7+/− β-galactosidase assay (10 uM): −0.2656 | Results in α7+/− β-galactosidase assay (20 uM): −0.396 | Results in α7+/− β-galactosidase assay (40 uM): −0.3923

CCOC(=O)C1=C(NC(=O)c2ccc(OC)c(S(=O)(=O)N3CCCCC3C)c2)Nc2ccccc2N=C1CC (stereo not drawn) [drawing 637]
Results in α7+/− β-galactosidase assay (0.5 uM): 0.1194 | Results in α7+/− β-galactosidase assay (1 uM): 0.007377 | Results in α7+/− β-galactosidase assay (5 uM): −0.06112 | Results in α7+/− β-galactosidase assay (10 uM): −0.01618 | Results in α7+/− β-galactosidase assay (20 uM): −0.4913 | Results in α7+/− β-galactosidase assay (40 uM): −0.6556

O=C(NCc1ccccc1)C(c1c(F)cccc1Cl)N(C(=O)c1csnn1)C1CC1 (stereo not drawn) [drawing 638]
Results in α7+/− β-galactosidase assay (0.5 uM): 0.05089 | Results in α7+/− β-galactosidase assay (1 uM): −0.04686 | Results in α7+/− β-galactosidase assay (5 uM): −0.06939 | Results in α7+/− β-galactosidase assay (10 uM): −0.1188 | Results in α7+/− β-galactosidase assay (20 uM): 0.4333 | Results in α7+/− β-galactosidase assay (40 uM): −0.4316

Cc1[nH]c2ccc(F)cc2c1CCN(Cc1ccco1)/C(S)=N/C(C)(C)C [drawing 639]
Results in α7+/− β-galactosidase assay (0.5 uM): 0.1665 | Results in α7+/− β-galactosidase assay (1 uM): 0.002443 | Results in α7+/− β-galactosidase assay (5 uM): −0.08261 | Results in α7+/− β-galactosidase assay (10 uM): −0.1049 | Results in α7+/− β-galactosidase assay (20 uM): −0.2055 | Results in α7+/− β-galactosidase assay (40 uM): −0.2801

c1ccc(-c2cc(-c3nc4ccccc4[nH]3)c3ccccc3n2)cc1 [drawing 640]
Results in α7+/− β-galactosidase assay (0.5 uM): 0.2113 | Results in α7+/− β-galactosidase assay (1 uM): 0.0679 | Results in α7+/− β-galactosidase assay (5 uM): −0.00848 | Results in α7+/− β-galactosidase assay (10 uM): −0.0409 | Results in α7+/− β-galactosidase assay (20 uM): 0.08704 | Results in α7+/− β-galactosidase assay (40 uM): −0.1752

CCC(C)n1nc(O)cc1N (stereo not drawn) [drawing 641]
Results in α7+/− β-galactosidase assay (0.5 uM): 0.2618 | Results in α7+/− β-galactosidase assay (1 uM): 0.0875 | Results in α7+/− β-galactosidase assay (5 uM): −0.07378 | Results in α7+/− β-galactosidase assay (10 uM): −0.09102 | Results in α7+/− β-galactosidase assay (20 uM): 0.1389 | Results in α7+/− β-galactosidase assay (40 uM): 0.06802

Cc1ccc(C(=O)N2CCN(S(=O)(=O)N3CCOCC3)CC2)cc1 [drawing 642]
Results in α7+/− β-galactosidase assay (0.5 uM): 0.1086 | Results in α7+/− β-galactosidase assay (1 uM): −0.02563 | Results in α7+/− β-galactosidase assay (5 uM): 0.3985 | Results in α7+/− β-galactosidase assay (10 uM): −0.06877 | Results in α7+/− β-galactosidase assay (20 uM): −0.07784 | Results in α7+/− β-galactosidase assay (40 uM): −0.1672

Cc1cccc(NC(=O)CN(C)C(=O)c2ccc(-c3ccc(Cl)cc3)o2)c1 [drawing 643]
Results in α7+/− β-galactosidase assay (0.5 uM): −0.0624 | Results in α7+/− β-galactosidase assay (1 uM): −0.00739 | Results in α7+/− β-galactosidase assay (5 uM): −0.04166 | Results in α7+/− β-galactosidase assay (10 uM): −0.109 | Results in α7+/− β-galactosidase assay (20 uM): 0.6807 | Results in α7+/− β-galactosidase assay (40 uM): −0.2589

Cc1ccccc1S(=O)(=O)N1C[C@H]2CON(C)[C@H]2C[C@H]1c1cccc(-c2ccccc2)c1 [drawing 644]
Results in α7+/− β-galactosidase assay (0.5 uM): 0.06241 | Results in α7+/− β-galactosidase assay (1 uM): 0.06141 | Results in α7+/− β-galactosidase assay (5 uM): 0.04452 | Results in α7+/− β-galactosidase assay (10 uM): 0.08987 | Results in α7+/− β-galactosidase assay (20 uM): −0.2419 | Results in α7+/− β-galactosidase assay (40 uM): −0.2934

N#C/C(=C/c1ccc(N2CCOCC2)o1)C(=O)Nc1ccccc1 [drawing 645]
Results in α7+/− β-galactosidase assay (0.5 uM): 0.06835 | Results in α7+/− β-galactosidase assay (1 uM): 0.1707 | Results in α7+/− β-galactosidase assay (5 uM): 0.1316 | Results in α7+/− β-galactosidase assay (10 uM): 0.05082 | Results in α7+/− β-galactosidase assay (20 uM): 0.07006 | Results in α7+/− β-galactosidase assay (40 uM): 0.03748

CCOc1ccccc1Nc1cc2n(c(=O)n1)CCc1cc(OC)c(OC)cc1-2 [drawing 646]
Results in α7+/− β-galactosidase assay (0.5 uM): −0.02172 | Results in α7+/− β-galactosidase assay (1 uM): 0.002645 | Results in α7+/− β-galactosidase assay (5 uM): −0.2359 | Results in α7+/− β-galactosidase assay (10 uM): −0.3859 | Results in α7+/− β-galactosidase assay (20 uM): −0.7975 | Results in α7+/− β-galactosidase assay (40 uM): −0.7954

CCOc1ccccc1NC(=O)COC(=O)CNS(=O)(=O)c1ccc(C)cc1 [drawing 648]
Results in α7+/− β-galactosidase assay (0.5 uM): 0.03233 | Results in α7+/− β-galactosidase assay (1 uM): 0.05083 | Results in α7+/− β-galactosidase assay (5 uM): −0.02764 | Results in α7+/− β-galactosidase assay (10 uM): −0.06749 | Results in α7+/− β-galactosidase assay (20 uM): −0.1666 | Results in α7+/− β-galactosidase assay (40 uM): −0.1295

Fc1ccc(-c2ccnc3nc(N4CCN(c5ccccc5)CC4)nn23)cc1 [drawing 649]
Results in α7+/− β-galactosidase assay (0.5 uM): 0.1594 | Results in α7+/− β-galactosidase assay (1 uM): 0.2225 | Results in α7+/− β-galactosidase assay (5 uM): 0.1641 | Results in α7+/− β-galactosidase assay (10 uM): 0.1229 | Results in α7+/− β-galactosidase assay (20 uM): 0.02594 | Results in α7+/− β-galactosidase assay (40 uM): 0.02675

CCOc1cc2c3c(c1)C(C)=CC(C)(C)N3C(=O)C2=O [drawing 650]
Results in α7+/− β-galactosidase assay (0.5 uM): 0.1703 | Results in α7+/− β-galactosidase assay (1 uM): 0.1592 | Results in α7+/− β-galactosidase assay (5 uM): −0.1933 | Results in α7+/− β-galactosidase assay (10 uM): −0.4363 | Results in α7+/− β-galactosidase assay (20 uM): −0.8277 | Results in α7+/− β-galactosidase assay (40 uM): −0.8257

COc1ccc2c(c1)/C(=C\c1cccc(/C=C3/C(=O)Nc4ccc(OC)cc43)n1)C(=O)N2 [drawing 651]
Results in α7+/− β-galactosidase assay (0.5 uM): −0.2196 | Results in α7+/− β-galactosidase assay (1 uM): −0.4455 | Results in α7+/− β-galactosidase assay (5 uM): −0.825 | Results in α7+/− β-galactosidase assay (10 uM): −0.8112 | Results in α7+/− β-galactosidase assay (20 uM): −0.9441 | Results in α7+/− β-galactosidase assay (40 uM): −0.9511

C/C(=N\NC(=O)c1cc(C)oc1C)c1ccc2ccccc2c1 [drawing 652]
Results in α7+/− β-galactosidase assay (0.5 uM): −0.1564 | Results in α7+/− β-galactosidase assay (1 uM): −0.09115 | Results in α7+/− β-galactosidase assay (5 uM): 0.2722 | Results in α7+/− β-galactosidase assay (10 uM): −0.1575 | Results in α7+/− β-galactosidase assay (20 uM): −0.3649 | Results in α7+/− β-galactosidase assay (40 uM): −0.6275

O=C1Nc2ccccc2/C1=C\c1cccn1-c1ccc(OC(F)(F)F)cc1 [drawing 653]
Results in α7+/− β-galactosidase assay (0.5 uM): −0.1201 | Results in α7+/− β-galactosidase assay (1 uM): 0.155 | Results in α7+/− β-galactosidase assay (5 uM): 0.2721 | Results in α7+/− β-galactosidase assay (10 uM): 0.07821 | Results in α7+/− β-galactosidase assay (20 uM): 0.05267 | Results in α7+/− β-galactosidase assay (40 uM): −0.1116

NS(=O)(=O)c1ccc(NC(=O)CN2CCc3ccccc32)cc1 [drawing 654]
Results in α7+/− β-galactosidase assay (0.5 uM): −0.2007 | Results in α7+/− β-galactosidase assay (1 uM): −0.06684 | Results in α7+/− β-galactosidase assay (5 uM): 0.3068 | Results in α7+/− β-galactosidase assay (10 uM): 0.002758 | Results in α7+/− β-galactosidase assay (20 uM): −0.1257 | Results in α7+/− β-galactosidase assay (40 uM): −0.1195

CC(=O)C1=C(C)Nc2ncnn2C1c1ccc(C)cc1 (stereo not drawn) [drawing 655]
Results in α7+/− β-galactosidase assay (0.5 uM): −0.08387 | Results in α7+/− β-galactosidase assay (1 uM): 0.003197 | Results in α7+/− β-galactosidase assay (5 uM): 0.2805 | Results in α7+/− β-galactosidase assay (10 uM): −0.01305 | Results in α7+/− β-galactosidase assay (20 uM): −0.1533 | Results in α7+/− β-galactosidase assay (40 uM): −0.247
